Measured values: patent publication US20250040546A1, “DETERGENT FOR VIRAL INACTIVATION” (Bristol-Myers Squibb Company, priority 2021, published 2025)
Read-outs that look alike come from different tables or passages of the source.

What was measured:
[1] = Isoelectric point (pI); type: physicochemical
[2] = Sialic acid content of Fus1 and Fus2 Protein A eluates of detergent-spiked harvest; type: physicochemical; conditions: stated as within acceptable range
Protocol: Sialic acids are neuraminic acids modified by the addition of an acetyl group (N-acetylneuraminic acid/NANA) or a glycol group (N-glycolylneuraminic acid/NGNA) .Sialic acid contents are reported as normalized molar ratios, which are the total moles of NANA and NGNA per mole of recombinant protein. The protein concentrations were determined by UV absorbance at 280 nm. Sialic acid content was determined by partial acidic hydrolysis using sulfuric acid at 0.1 N final concentration at 80° C. for 1 hour followed by reversed phase HPLC using Rezex Monosaccharide RHM HPLC column (Phenomenex, Catalog No. OOH-0132-KO with respective guard column (Phenomenex, Catalog No. 03B-0132-KO). Elution was conducted with 5 mM Sulfuric acid at 0.6 mL/min and 40° C.

[3] = test system: X-MuLV; experiment: Detergent-mediated virus inactivation of X-MuLV in mAb1 harvest (pfu-based LRV); type: cell-based, Xenotropic Murine Leukemia Virus; conditions: for Log reduction value (LRV) of X-MuLV: 60 minutes hold at 2-8° C.
Protocol: (§1) Three lipid-enveloped viruses X-MuLV, HSV-1 and A-MuLV (Amphotropic Murine Leukemia Virus) were investigated for VI in the cell culture fluid of a monoclonal antibody (mAb1) and a fusion protein (Fus1) for a range of detergents and detergent concentrations (FIG. 6). Protein concentration and buffer matrix were dictated by that in the harvest for the specific therapeutic and process. A temperature of 2-8° C. was used as a worst case for inactivation and incubation times of 0, 5 and 60 minutes were used to explore the kinetics of inactivation. Viral clearance was measured in units of Log Reduction Value (LRV) which was calculated from pfu (Plaque Forming Units) as follows
(§2) Virus inactivation studies were conducted for X-MuLV in mAb1 harvest, HSV-1 and A-MuLV in Fus1 harvest at 0, 5 and 60 minutes at 2-8° C. The inactivation studies for each condition were conducted in duplicates with results varying within 0.5 LRV. The lower of the two LRVS was plotted in FIG. 6 to remain conservative regarding the extent of inactivation. The error bars represent the assay variability.
The mechanism of detergent-mediated VI can share similarities with pH-mediated VI and is likely a characteristic of the detergent-protein-virus system under consideration. Detergents could unfold or denature specific viral surface glycoproteins that are critical for the host cell infection as is the case for X-MuLV [Brorson et al. (2003) Biotechnology and Bioengineering 82(3):321-329; Simons & Ehehalt (2002) Journal of Clinical Investigation 110(5):597-603]. Alternately, detergents could inactivate viruses such as HSV-1 through dissolution of the viral lipid envelope or preferential partitioning of the membrane protein into detergent micelles [Welling-Wester et al. (1998) Journal of chromatography A 816(1):29-37]. Three lipid-enveloped viruses commonly used for viral validation studies, X-MuLV, HSV-1 and A-MuLV (Amphotropic Murine Leukemia Virus), were investigated for VI. Any VI condition showing LRV ≥4.0 after a 60 minute hold at 2-8° C., worst case temperature for VI, was considered effective. The extent of inactivation from different detergents was compared with Triton X-100.

[4] = Slinde & Flatmark (1976); cited from earlier work
[5] = test system: HSV-1; experiment: Detergent-mediated virus inactivation of HSV-1 in Fus1 harvest (pfu-based LRV); type: cell-based, Herpes Simplex Virus type 1; conditions: detergent concentration not stated
[6] = test system: A-MuLV; experiment: Detergent-mediated virus inactivation of A-MuLV in Fus1 harvest (pfu-based LRV); type: cell-based, Amphotropic Murine Leukemia Virus; conditions: detergent concentration not stated
Protocol: as §1, §2
The mechanism of detergent-mediated VI can share similarities with pH-mediated VI and is likely a characteristic of the detergent-protein-virus system under consideration. […]

[7] = cited from earlier work
[8] = test system: B7.1 Ig; experiment: Potency: Surface Plasmon Resonance binding of CTLA-4 domain of Fus1 to B7.1 Ig in presence of detergent; conditions: high concentration Fus1 DS; detergent at 10×CMC; 24 hours, room temperature
Protocol: The potency was determined by measuring the binding efficacy of the CTLA-4 (cytotoxic T-lymphocyte-associated protein 4) domain of the fusion proteins against the complementary binding domain of membrane protein B7.1 Ig, typically found on activated antigen-presenting cells (APC). Drug efficacy for the purified DS was evaluated using a Surface Plasmon Resonance assay; the binding efficacy of the CTLA-4 domain of Fus1 and Fus2 against a high concentration of the peripheral membrane protein B7.1 Ig was examined. Due to the influence of impurities on the binding efficacy, only DS was tested.

[9] = biological target: T1, Fus2 (Homo sapiens, UniProt P16410, A66Y/L141E); experiment: Oxidation of Fus2 (tryptic digest RP-UPLC) after detergent spiking of harvest; type: physicochemical; conditions: Fus2 harvest spiked with detergent at 1×CMC, protein A eluate
T1 construct: made in house; host or cells: CHO
T1 sequence (P16410 with tags, fused parts or gaps A66Y/L141E limits assumed): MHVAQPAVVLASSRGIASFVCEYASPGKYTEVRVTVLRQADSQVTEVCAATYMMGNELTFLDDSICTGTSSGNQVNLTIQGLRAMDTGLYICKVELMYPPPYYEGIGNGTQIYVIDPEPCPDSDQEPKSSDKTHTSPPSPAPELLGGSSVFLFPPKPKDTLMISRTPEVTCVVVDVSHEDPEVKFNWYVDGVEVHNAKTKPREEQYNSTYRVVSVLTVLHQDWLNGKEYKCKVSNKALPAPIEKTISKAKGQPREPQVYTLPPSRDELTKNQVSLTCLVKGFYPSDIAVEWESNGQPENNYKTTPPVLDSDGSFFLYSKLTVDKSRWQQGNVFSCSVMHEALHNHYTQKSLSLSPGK
Protocol: (§3) The protein sample was denatured in denaturation buffer (8 M guanidine, 50 mM TRIS, pH 8.0) and the cystine disulfide bridges were reduced with dithiothreitol (200 mM DTT) followed by S-alkylation with iodoacetamide (400 mM IAM). The denatured, reduced protein was buffer-exchanged (50 mM TRIS, 10 mM CaCl2), pH 7.6) prior to digestion with trypsin. The resulting digested mixture was then analyzed by reverse-phase ultra-performance liquid chromatography (RP-UPLC) using UPLC BEH C18 Column, […], 130 angstrom, 2.1×100 mm (Waters, Catalog no. 186002352) with Mobile Phase A (0.1% TFA, 50 mM Methionine in HPLC Grade Water) and Mobile Phase B (0.1% TFA, 50 mM Methionine in 80% ACN and 20% HPLC grade water). Protein detection at 215 nm absorbance and fluorescent excitation/emission of 275 nm/303 nm and 280 nm/348 nm was used to quantify relative levels of oxidation and deamidation respectively.

[10] = biological target: T2, Fus1 (Homo sapiens, UniProt P16410); experiment: Oxidation of Fus1 (tryptic digest RP-UPLC) after detergent spiking of harvest; type: physicochemical; conditions: Fus1 harvest spiked with detergent at 1×CMC, protein A eluate
T2 construct: made in house; host or cells: CHO
T2 sequence (P16410 with tags, fused parts or gaps): as the sequence (P16410 with tags, fused parts or gaps A66Y/L141E limits assumed) above, with Y29A, E104L counted along it
Protocol: as §3

[11] = test system: fusion proteins Fus1 and Fus2; experiment: SEC analysis of HMW formation and aggregation kinetics of fusion proteins with detergents; type: physicochemical
Protocol: Size exclusion chromatography (SEC) was performed in a Waters HPLC Alliance 2695 System using TSKgel G3000SWXL Column (Tosoh Bioscience, Catalogue no. 085430) with guard column (Tosoh Bioscience, Catalogue no. 08541) in line. A mobile phase of 0.2 M Sodium phosphate, monobasic, 0.9% NaCl, pH 7.0 was used with 20 μL injection volumes at 1 to 10 mg/mL target protein concentrations with a flow rate of 1 mL/minute. Tandem SEC was performed with 50 μL injection volumes with a flow rate of 0.5 mL/minute using 6 TSKgel G3000SWXL Column using 0.2 M KH2PO4, 0.9% NaCl, pH 6.8 as mobile phase.
Given N is the monomer species, No is the initial monomer % at time t=0, aggregation follows first order kinetics with k1 being the rate constant of aggregation as shown in Equation (1) (Derivation in Supplemental Information).

[12] = test system: lipid-enveloped viruses; experiment: Viral inactivation, summary statements (LRV equal or above 4 criterion); type: cell-based; conditions: detergent below its CMC, e.g. 0.5×CMC; virus not named
From the text: The present disclosure relates to detergent-mediated inactivation of lipid-enveloped viruses. […] The current commercially available detergent for such process is Triton X-100.
Several environmentally friendly detergents for the viral inactivation step of biologics manufacturing processes have been identified in the art, e.g., Lauryldimethylamine Oxide (LDAO) and ECOSURF™ EH9. These systems for viral inactivation use a single detergent. The present disclosure provides a detergent mixture comprising two environmentally sustainable detergents: n-Octyl-β-D-Glucopyranoside (OG) and n-Dodecyl-β-D-Maltopyranoside (DDM). […] Accordingly, the disclosed combination of OG and DDM can be used as substitute of Triton X-100 for the viral inactivation step in the production of biologics, for example, in the process used to manufacture ORENCIA®.

Molecule: Fus2: fusion protein belatacept (SEQ ID NO:2 proteins)
- pI [1]: ~5.0
- NANA (N-acetylneuraminic acid): protein molar concentration [2]: 6 to 8.5%

Molecule: Triton X-100
- Log reduction value (LRV) of X-MuLV ([3]; detergent at 1×CMC): ≥ 4.85±0.5 LRV
- Log reduction value (LRV) of X-MuLV ([3]; detergent at 10×CMC): ≥ 4.85±0.5 LRV
- HLB value [4]: 13.5

Molecule: Fus1: fusion protein abatacept (CTLA4-Ig, SEQ ID NO:1 proteins)
- pI [1]: ~5.0
- NANA (N-acetylneuraminic acid): protein molar concentration [2]: 8 to 12%

Molecule: CCCCCCCCCCO[C@@H]1O[C@H](CO)[C@@H](O[C@H]2O[C@H](CO)[C@@H](O)[C@H](O)[C@H]2O)[C@H](O)[C@H]1O [DM, n-Decyl-β-D-Maltopyranoside]
- Log reduction value (LRV) of X-MuLV ([3]; detergent at 10×CMC): 2.0 LRV

Molecule: Polysorbate 80 [PS80]
- Inactivation of X-MuLV ([3]; detergent concentration not stated): No inactivation
- Inactivation of HSV-1 [5]: No inactivation
- Inactivation of A-MuLV [6]: No inactivation

Molecule: CCCCCCCCCCCC[N+](C)(C)[O-] [LDAO, Lauryldimethylamine Oxide]
- LRV ([7]; fusion protein at 2-8° C. (Conley et al.)): ~3.0 LRV
- LRV ([7]; fusion protein at room temperature (Conley et al.)): ~4.0 LRV
- LRV ([7]; mAb under the same conditions, 2-8° C. (Conley et al.)): 4.0 LRV

Molecule: CCCCCCCCO[C@@H]1O[C@H](CO)[C@@H](O)[C@H](O)[C@H]1O [OG, n-Octyl-β-D-Glucopyranoside]
- Potency (B7 binding efficiency relative to reference material) [8]: less than 60%
- Oxidation of Fus2 [9]: higher oxidation
- Oxidation of Fus1 [10]: higher oxidation
- HMW formation (rank among detergents) ([11]; SEC, DS and clarified harvest of Fus1 and Fus2): greatest
- Rate of aggregation (rank among OG, DDM, LDAO) ([11]; high concentration DS of Fus1 and Fus2): fastest rate of aggregation
- Viral inactivation (defined as a LRV equal or above 4) [12]: insufficient for viral inactivation
